Source: patent publication US11963969B2, “Method for prevention or treatment of amyotrophic lateral sclerosis by administering gastrodin” (BUDDHIST TZU CHI MEDICAL FOUNDATION, priority 2021, dated 2024)
Entries after “also recorded” stand apart in the source; their conditions may differ.

Columns and labels:
patients with ALS = conditions: cited from earlier work
[1] = tested on: SOD1^D90A ALS motor neurons; assay: NF staining of SOD1^D90A ALS iPSC-differentiated motor neurons; format: cell-based, human; conditions: for efficacy on increasing number of nerve fibers, gastrodin compared with riluzole / reduction of spherical nerve fiber beads, gastrodin compared with riluzole: comparison of gastrodin and riluzole
Method: (§1) The gastrodin was diluted with dimethyl sulfoxide (DMSO) to 10 mM, added to the motor neurons differentiated at Day 25, Day 35 and Day 45 at a dosage ratio of 1:1,000, and cultured for 72 hours (hrs) for various assays.
A 4-well culture slide with a glass cover placed thereon was coated with 1% Geltrex®, placed at 37° C. for at least 3 to 4 hrs, washed with phosphate buffered saline (PBS) once after removal of the Geltrex®, and soaked in a culture medium until use. The embryoid bodies were dissociated with enzymes or mechanical force into smaller pieces, seeded on the 4-well culture slide, and cultured for 3 days (optionally for a longer period). After the cells adhered and extended outwards to present rosettes with a neural tube-like or a neuronal morphology, the immunofluorescent staining was then performed.
For the immunofluorescent staining, the medium was firstly removed, and then the cells were washed with PBS at room temperature twice. Next, 200 μL of 4% paraformaldehyde was added to the cells, and the mixture was reacted at room temperature for 5 to 15 min to fix the cells. The cells were washed with PBS for 3 times for 5 min each, and 200 μL of 99% methanol or 0.3% Triton® was added. The mixture was incubated for 5 to 15 min at 4° C., and the liquid was removed after permeabilization. The methanol, if used for fixation, was volatilized out. Then, the mixture was washed with PBS for 3 times (each for 5 min), and 200 μL of 5% horse serum was added at room temperature for at least 1 hr for blocking. […] The primary antibody was removed after conjugation for 16 hrs, followed by washing with PBS and Tween® 20 (abbreviated as PBST hereinafter) for 3 times for 5 min each, and a secondary antibody (prepared in PBS at a concentration of 1:500) was added. The secondary antibody was kept in dark for 1 hour at room temperature. After removal of the secondary antibody, the mixture was washed 3 times with PBST for 5 min each.
(§2) Thereafter, the cells were labeled via nuclear staining by adding 200 μL of 4′,6-diamidino-2-phenylindole (DAPI) (1 μg/mL), reacting in dark for 5 to 15 min at room temperature, removing DAPI, washing with PBST twice for 5 min each, removing PBST, adding PBS to maintain the cell moisture, lifting the glass coverslip with a needle tip, reversing the glass coverslip to the side with 50% glycerol or a mounting gel, storing in dark at 4° C., observing with a fluorescence microscope or a confocal microscope and photographing, and subsequently quantifying the numbers of neurofilaments and nerve fiber beads using an OLYMPUS cellSens Dimension Desktop 2.3 software.
In this Example, SOD1^D90A ALS iPSCs-differentiated motor neurons were used for comparing the efficacies of gastrodin and riluzole on improvement of ALS symptoms.

[2] = tested on: SOD1^G85R ALS motor neurons; assay: NF staining of SOD1^G85R ALS iPSC-differentiated motor neurons; format: cell-based, human; conditions: 10 μM gastrodin, 72 hrs, vs untreated
Method: as §1
(§3) A 4-well culture slide with a glass cover placed thereon was coated with 1% Geltrex®, placed at 37° C. for at least 3 to 4 hrs, washed with phosphate buffered saline (PBS) once after removal of the Geltrex®, and soaked in a culture medium until use. The embryoid bodies were dissociated with enzymes or mechanical force into smaller pieces, seeded on the 4-well culture slide, and cultured for 3 days (optionally for a longer period). […]
as §2, with “software. […]” for “software.”

[3] = tested on: B6SJL-Tg (SOD1*G93A) 1Gur/J transgenic mice; assay: ALS model mice: motor abilities, BBB score and survival; format: in vivo
Description: The mice began to develop limb onsets in 80 to 90 days after birth, gradually lose ability to walk, and muscle weakness and atrophy started spreading to the upper parts of body. Most of their voluntary muscles became paralyzed and death after 110 to 120 days due to gradual loss of chewing ability and respiratory failure. The pathological characteristics include symptoms of amyotrophic lateral sclerosis such as muscular dystrophy, synaptic loss of motor neurons, degeneration and death of motor neurons, dismantling of the neuromuscular junction, etc.
Sixty days after birth, the ALS model mice (B6SJL-Tg (SOD1*G93A) 1Gur/J) were administered with gastrodin cycles once every 30 days as a single cycle, and 5 intraperitoneal injection of gastrodin was administered (with one day interval between every two intraperitoneal injections) at the first 10 days. No injection was administered during the subsequent 20 days. A total of two cycles of dosing may be performed until 120 days after birth.
The Example tested whether gastrodin improved the ALS symptoms of transgenic mice.
In this Example, beginning at 60 days after birth, the mice were administered with gastrodin by intraperitoneal injection at a dose of 50 mg/kg or 200 mg/kg for 5 times (with one day interval) every 30 days, until the mice degenerated severely to the extent that the hind lambs lost motor ability completely and until sacrificed. In this Example, motor abilities were tested, and survival time was recorded in days.

[4] = tested on: sALS iPSC-differentiated motor neurons; assay: NF staining of motor neurons differentiated from sporadic ALS iPSCs; format: cell-based, human; conditions: after treatment with gastrodin
Method: as §1, §3
as §2, with “software. […]” for “software.”

SOD1^D90A motor neurons = assay: Calcium ion image analysis after KCl and glutamate stimulation; format: cell-based, human
Method: as §1
Cells were seeded on a Geltrex®-coated round glass slide having a diameter of 10 mm, and cultured in a neurobasal medium supplemented with RevitaCell® and compound E for 3 days. 1 μM calcium fluorescent probe Fluo-4 solution was prepared in a physiological buffer containing […], 5 mM KCl, 2 mM CaCl2, 2 mM MgCl2, 10 mM glucose and 10 mM HEPES, and the glass slide on which the cells were seeded was transferred into the 1 μM Fluo-4 solution and cultured at 37° C. for 4 min. The glass slide was transferred into a physiological buffer and cultured at 37° C. for 20 min. The glass slide with cells seeded thereon was transferred into a calcium imaging chamber for imaging under perfusion.
Images were taken under perfusion with a physiological buffer for 30 seconds, then under perfusion with 60 mM KCl for 1 min, and then under perfusion with a physiological buffer for 5 min. Next, images were taken under perfusion with 1 mM glutamate for 1 min, and then under perfusion with a physiological buffer for 5 min. Images were captured with a microscope (Nikon ECLIPSE Ti2-E) and analyzed using NIS-Elements AR software. […]

ALS motor neurons = assay: ALS motor neurons, summary of axon and neurofilament findings; format: cell-based, human; conditions: 72 hrs after addition of gastrodin
Method: as §1

[5] = intraperitoneal gastrodin from day 60, vs control
[6] = 10 μM gastrodin, 72 hrs, NF staining, vs untreated

Row | SMILES | degeneration rate of motor ability (patients with ALS) | efficacy on increasing number of nerve fibers, gastrodin compared with riluzole [1] | reduction of spherical nerve fiber beads, gastrodin compared with riluzole [1] | amount of nerve fibers [2] | roller residence time ([3]; 50 mg/kg or 200 mg/kg intraperitoneal, 5 times every 30 days from day 60, vs control) | loss of motor ability ([3]; after injection of gastrodin) | mortality rate ([3]; after injection of gastrodin) | symptoms at an earlier stage ([3]; after injection of gastrodin) | suppression on loss of active ability, improvement ([3]; compared to the control group) | BBB scores [3, 5] | extension of life / overall survival time [3, 5] [days] | gripping strength of the hind limbs [3, 5] | amount of nerve fibers [4] | nerve fiber beads [4] | response of ALS motor neurons to KCl (SOD1^D90A motor neurons; KCl stimulation) | oversensitive response to glutamate (calcium ion flow) (SOD1^D90A motor neurons; treatment for 72 hrs, 1 mM glutamate stimulation) | neural axons (ALS motor neurons) | neurofilament accumulation (ALS motor neurons) | amount of nerve fibers [1, 6] | spherical nerve fiber beads [1, 6]
1 | CC1=NN(c2ccccc2)C(=O)C1 [Edaravone, edaravone] | can alleviate |  |  |  |  |  |  |  |  |  |  |  |  |  |  |  |  |  |  | 
2 | Nc1nc2ccc(OC(F)(F)F)cc2s1 [riluzole, reference compound] |  | comparable to riluzole | by an extent more than riluzole |  |  |  |  |  |  |  |  |  |  |  |  |  |  |  |  | 
3 | OCc1ccc(O[C@@H]2O[C@H](CO)[C@@H](O)[C@H](O)[C@H]2O)cc1 [gastrodin] |  | comparable to riluzole | by an extent more than riluzole | significantly increase | obviously longer than that of the control; also recorded: increased | obviously delayed | reduced | delayed | about 20 days | retarded the decrease | 10 | clearly increased | increased | decreased | promoted | significantly decreased | Increased | reduced | increased | significantly decreased
